Reference: patent publication US20240109881A1, “Heteroaryl Compounds as Ligand Directed Degraders of IRAK4” (Bristol-Myers Squibb Company, priority 2022, published 2024)

How the values were obtained:
IRAK4 [1] = target: T1, IRAK4 (Homo sapiens, UniProt Q9NWZ3); assay: ALE THP1 HTRF (Advanced Lipoxidation End Product THP1 Homogeneous Time Resolved Fluorescence); assay type: cell-based; settings: THP1 cells
T1 construct: endogenous in cells; host or cells: THP-1 cells
T1 sequence (Q9NWZ3 1-460): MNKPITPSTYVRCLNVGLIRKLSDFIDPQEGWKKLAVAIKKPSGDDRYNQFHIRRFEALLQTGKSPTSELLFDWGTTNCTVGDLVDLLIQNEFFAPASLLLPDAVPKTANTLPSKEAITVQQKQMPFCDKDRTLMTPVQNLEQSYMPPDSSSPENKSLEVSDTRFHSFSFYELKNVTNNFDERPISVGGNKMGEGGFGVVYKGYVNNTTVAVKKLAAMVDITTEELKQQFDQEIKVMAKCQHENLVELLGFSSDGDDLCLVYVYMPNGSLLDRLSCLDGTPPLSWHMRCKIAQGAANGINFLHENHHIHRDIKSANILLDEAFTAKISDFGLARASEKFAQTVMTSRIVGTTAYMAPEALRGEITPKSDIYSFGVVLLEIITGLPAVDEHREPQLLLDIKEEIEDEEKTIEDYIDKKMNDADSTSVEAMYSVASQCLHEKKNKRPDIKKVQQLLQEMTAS
Description: For Homogenous Time Resolved Fluorescence (HTRF) assays, a Cisbio HTRF kit was used, which included: Lysis Buffer #1 4×, Blocking Reagent #3 100×, 20× Antibody 1 (Anti-IRAK4 d2), 20× Antibody 2 (Anti-IRAK4 k), and Detection Buffer.
4× Lysis Buffer was stored at 4° C. For use as 1× Lysis buffer, the 4× solution was diluted with de-ionized water (distilled water, Gibco Cat. #15230279) and 100× Blocking Reagent in a 1:3:0.04 volume ratio.
20× Antibody Solution aliquots were stored in −80° C. and the Detection Buffer was stored in 4° C. For use as a 1× Antibody Solution, the 20× Antibody Solution aliquot was diluted with Detection Buffer in a 1:19 volume ratio.
Cells were lysed at room temperature for 45 min with shaking. A BCA protein assay was performed and normalization was conducted to the desired total protein concentration with 1× lysis buffer. Next, 1× Antibody Solutions were prepared by adding 380 μL Detection Buffer to 20 μL 20× Antibody Solution aliquots and mixing well. 1× Antibody Solutions were combined 1:1 and briefly vortexed. For control wells, 20 μL 1× anti IRAK4-k Antibody Solution was saved. The 384-well plate (ProxiPlate-384 Plus, Perkin Elmer Cat. #6008289) was loaded by adding 4 μL of the mixed Antibody Solution to empty wells using a single channel repeater. Using a multi-channel repeater, 16 μL lysate was added per well, and any bubbles that were formed were popped with 20 μL pipette tips and Kimwipe edges. In column 10, triplicates of each control was prepared. In wells A10, B10, and C10, buffer control was prepared by adding 16 μL Lysis Buffer and 4 μL Detection Buffer. In wells D10, E10, and F10, cryptate control was prepared by adding 16 μL Lysis Buffer, 2 μL Detection Buffer, and 2 μL 1× anti IRAK4-k Antibody Solution. In wells G10, H10, and I10, a negative control was prepared by adding 16 μL Lysis Buffer and 4 μL mixed Antibody Solution. The plate was sealed with a clear seal and covered with an aluminum lid. The plate was spun down at 800 g for 5 min and incubated in the dark at room temperature overnight. The next day, the plate was spun down at 800 g for 5 min. The samples were analyzed by a plate reader (Envision, PerkinElmer) using the Desnor 384 HTRF program.

IRAK4 [2] = target: T1, IRAK4; assay: LVL THP1 HTRF (THP1 Homogeneous Time Resolved Fluorescence); assay type: cell-based; settings: THP1 cells, 18 h incubation with compound; for DC50: read-out: LVL THP1 HTRF EC50
How it was run: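 IRAK4 HTRF read-out (665/615 nm ratio, anti-IRAK4 d2 acceptor and K donor, 18 h dark incubation at room temperature) on lysates of THP-1 cells. Cells were treated 18 h at 37° C. with 20 nL compound in DMSO, in colorless RPMI with 10% FBS, with a duplicate CTG plate.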

| SMILES | ALE THP1 HTRF YMIN (IRAK4 [1]) [%] | EC50 (IRAK4 [1]) [nM] | LVL THP1 HTRF YMIN (IRAK4 [2]) [%] | DC50 (IRAK4 [2]) [nM] |
| --- | --- | --- | --- | --- |
| N#Cc1cnc2c(cnn2-c2cc(NC3CC3)c(C(=O)N[C@H]3CC[C@H]([C@@H]4C[C@H]4N4CCN(c5ccc(C6CCC(=O)NC6=O)cc5)CC4)CC3)cn2)c1 (relative stereo) [P-111] | 15.6 | 24 |  |  |
| CC[C@@H]1CN(CC[C@H]2CC[C@H](c3cn(-c4cnc(-n5ncc6cc(C#N)c(N)nc65)cc4N[C@H](C)C#N)nn3)CC2)CCN1c1ccc(N2CCC(=O)NC2=O)cn1 [P-446] |  |  | −1.4 | 1.4 |
| CC[C@@H]1CN(CC[C@H]2CC[C@H](c3cn(-c4cnc(-n5ncc6cc(C#N)c(N)nc65)cc4N[C@H](C)C#N)nn3)CC2)CCN1c1ccc(N2CCC(=O)NC2=O)cc1 [P-447] |  |  | 0.8 | 0.6 |
| C[C@H](C#N)Nc1cc(-n2ncc3cc(C#N)cnc32)ncc1-n1cc([C@H]2CC[C@H](CCN3CCC4(C3)CN(c3ccc([C@@]5(C)CCC(=O)NC5=O)cc3)C4)CC2)nn1 [P-448] |  |  | 3.9 | 32.1 |
| C[C@H](C#N)Nc1cc(-n2ncc3cc(C#N)cnc32)ncc1-n1cc([C@H]2CC[C@H](CCN3CC4(CC(c5ccc(N6CCC(=O)NC6=O)cn5)C4)C3)CC2)nn1 [P-449] |  |  | 23.7 | 424 |
| CC[C@@H]1CN(CC[C@H]2CC[C@H](c3cn(-c4cnc(-n5ncc6cc(C#N)cnc65)cc4N[C@H](C)C#N)nn3)CC2)CCN1c1ccc(C2CCC(=O)NC2=O)cc1 (stereo partly drawn) [P-452] |  |  | 0.5 | 1.9 |
| C[C@H](C#N)Nc1cc(Nc2ncc(C#N)cc2Cl)ncc1-n1cc([C@H]2CC[C@H](CCN3CCN(c4ccc(N5CCC(=O)NC5=O)cn4)[C@H](C)C3)CC2)nn1 [P-455] |  |  | −5.9 | 7.8 |
| C[C@H](C#N)Nc1cc(-n2ncc3cc(C#N)cnc32)ncc1-n1cc([C@H]2CC[C@H](CCN3CC[C@@H](Oc4ccc(N5CCC(=O)NC5=O)cc4)C3)CC2)nn1 [P-458] |  |  | 15.0 | 128 |
| C[C@H](C#N)Nc1cc(-n2ncc3cc(C#N)c(N)nc32)ncc1-n1cc([C@H]2CC[C@H](CCN3CCN(c4ccc(N5CCC(=O)NC5=O)cn4)[C@H](C)C3)CC2)nn1 [P-463] |  |  | −3.4 | 0.1 |
| C[C@H](C#N)Nc1cc(-n2ncc3cc(C#N)cnc32)ncc1-n1cc([C@H]2CC[C@H](CCN3CCC4(c5ccc(N6CCC(=O)NC6=O)cc5)CC4C3)CC2)nn1 (stereo partly drawn) [P-471] |  |  | 7.7 | 87.9 |
| C[C@H](C#N)Nc1cc(Nc2ncc(C#N)cc2Cl)ncc1-n1cc([C@H]2CC[C@H](CCN3CC4(CC(c5ccc(N6CCC(=O)NC6=O)cn5)C4)C3)CC2)nn1 [P-473] |  |  | 15.5 | 1000 |
| C[C@H](C#N)Nc1cc(-n2ncc3cc(C#N)cnc32)ncc1-n1cc([C@H]2CC[C@H](CCN3CCC(c4ccc5c(N6CCC(=O)NC6=O)nn(C)c5c4)CC3)CC2)nn1 [P-476] |  |  | 0.9 | 2 |
| C[C@H](C#N)Nc1cc(N2CCc3cc(C#N)cnc32)ncc1-n1cc([C@H]2CC[C@H](CCN3CCN(c4ccc(N5CCC(=O)NC5=O)cc4)CC3)CC2)nn1 [P-486] |  |  | 24.9 | 200 |
| C[C@H](C#N)Nc1cc(-n2ncc3cc(C#N)cnc32)ncc1-n1cc(C2CCC(N3CCN(c4ccc(N5CCC(=O)NC5=O)cc4)CC3)CC2)nn1 (stereo partly drawn) [P-499, 1-(4-(((R)-1-cyanoethyl)amino)-5-(4-(4-(4-(4-(2,4-dioxotetrahydropyrimidin-1(2H)-yl)phenyl)piperazin-1-yl)cyclohexyl)-1H-1,2,3-triazol-1-yl)pyridin-2-yl)-1H-pyrazolo[3,4-b]pyridine-5-carbonitrile] |  |  | 13.6 | 172 |

Next, values leading:

| ALE THP1 HTRF YMIN (IRAK4 [1]) [%] | EC50 (IRAK4 [1]) [nM] | LVL THP1 HTRF YMIN (IRAK4 [2]) [%] | DC50 (IRAK4 [2]) [nM] | SMILES |
| --- | --- | --- | --- | --- |
| 7.4 | 11 |  |  | CC1(c2ccc(N3CCN(CCC4CCC(NC(=O)c5cnc(-n6ncc7cc(C#N)cnc76)cc5NC5CC5)CC4)CC3)cc2)CCC(=O)NC1=O (single isomer, unassigned) [P-94] |
|  |  | 4.0 | 65.8 | CC[C@H]1CN(CC[C@H]2CC[C@H](c3cn(-c4cnc(-n5ncc6cc(C#N)cnc65)cc4N[C@H](C)C#N)nn3)CC2)CCN1c1ccc(N2CCC(=O)NC2=O)cc1 [P-445] |
|  |  | −0.5 | 2.5 | C[C@H](C#N)Nc1cc(-n2ncc3cc(C#N)cnc32)ncc1-n1cc([C@H]2CC[C@H](CCN3CCN(c4ccc(N5CCC(=O)NC5=O)cc4)C[C@H]3C)CC2)nn1 [P-459] |
|  |  | 18.9 | 293 | C[C@H](C#N)Nc1cc(-n2ncc3cc(C#N)cnc32)ncc1-n1cc([C@H]2CC[C@H](CCN3CC[C@H](Oc4ccc(N5CCC(=O)NC5=O)cc4)C3)CC2)nn1 [P-465] |
|  |  | 2.3 | 17.2 | C[C@H](C#N)Nc1cc(-n2ncc3cc(C#N)cnc32)ncc1-n1cc([C@H]2CC[C@H](CCN3CCN(c4ccc(N5CCC(=O)NC5=O)cc4)C[C@@H]3C)CC2)nn1 [P-468] |
|  |  | 6.4 | 47 | C[C@H](C#N)Nc1cc(-n2ncc3cc(C#N)cnc32)ncc1C(=O)N[C@H]1CC[C@H](CCN2CC[C@H]3[C@@H]2CCN3c2ccc(N3CCC(=O)NC3=O)c(Cl)c2)CC1 [P-475] |
|  |  | 18.6 | 263 | C[C@H](C#N)Nc1cc(-n2ncc3cc(C#N)cnc32)ncc1-n1cc([C@H]2CC[C@H](CCN3CC(c4ccc(N5CCC(=O)NC5=O)cc4)C3)CC2)nn1 [P-477] |
|  |  | 9.4 | 38 | C[C@H](C#N)Nc1cc(-n2ncc3cc(C#N)cnc32)ncc1C(=O)N[C@H]1CC[C@H](CCN2CC[C@H]3[C@@H]2CCN3c2ccc(N3CCC(=O)NC3=O)c(F)c2)CC1 [P-481] |
|  |  | 3.4 | 11 | C[C@H](C#N)Nc1cc(-n2ncc3cc(C#N)cnc32)ncc1-n1cc([C@H]2CC[C@H](CCN3C[C@@H](C)N(c4ccc(N5CCC(=O)NC5=O)cc4)C[C@@H]3C)CC2)nn1 [P-483] |
|  |  | 52.3 | 1000 | C[C@H](C#N)Nc1cc(-n2ncc3cc(C#N)cnc32)ncc1C(=O)N[C@H]1CC[C@H](CCN2CC[C@H]3[C@@H]2CCN3c2ccc(N3CCC(=O)NC3=O)c(F)c2)CC1 [P-484] |
|  |  | 84.3 | 1000 | Cc1cc(N2CC[C@H]3[C@@H]2CCN3CC[C@H]2CC[C@H](NC(=O)c3cnc(-n4ncc5cc(C#N)cnc54)cc3N[C@H](C)C#N)CC2)ccc1N1CCC(=O)NC1=O [P-489] |
|  |  | 81.6 | 1000 | Cc1cc(N2CC[C@H]3[C@@H]2CCN3CC[C@H]2CC[C@H](NC(=O)c3cnc(-n4ncc5cc(C#N)cnc54)cc3N[C@H](C)C#N)CC2)ccc1N1CCC(=O)NC1=O [P-490] |
|  |  | 2.7 | 127 | C[C@H](C#N)Nc1cc(-n2ncc3cc(C#N)cnc32)ncc1-n1cc([C@H]2CC[C@H](CCN3C[C@@H](C)N(c4ccc(N5CCC(=O)NC5=O)cc4)C[C@H]3C)CC2)nn1 [P-496] |
|  |  | −2.8 | 2 | C[C@H](C#N)Nc1cc(-n2ncc3cc(C#N)cnc32)ncc1-n1cc([C@H]2CC[C@H](CCN3CCN(c4ccc5c(N6CCC(=O)NC6=O)nn(C)c5c4)[C@H](C)C3)CC2)nn1 [P-498] |
|  |  | −2.28 | 2.2 | C[C@H](C#N)Nc1cc(-n2ncc3cc(C#N)cnc32)ncc1-c1cn([C@H]2CC[C@H](CCN3CCN(c4ccc(N5CCC(=O)NC5=O)cc4)[C@H](C)C3)CC2)nn1 [P-501] |
|  |  | −0.79 | 1.2 | C[C@H](C#N)Nc1cc(-n2ncc3cc(C#N)cnc32)ncc1-n1cc([C@H]2CC[C@H](CCN3CCN(c4ccc5c(N6CCC(=O)NC6=O)nn(C)c5c4)[C@@H](C)C3)CC2)nn1 [P-502] |
